In paper PMC11855478, “Bicyclic N,S-Acetals Containing Fused Cysteine-Amide System as New Heterocyclic Class Targeting Human Farnesyltransferase (FTase-h)” (International Journal of Molecular Sciences, 2025):

Key:
OVCAR-8 (Ovarian Cancer) = assay: NCI one dose, OVCAR-8; assay type: cell-based, human; details: OVCAR-8, 1.00E-5 Molar one dose
Method in brief: (§1)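 NCI-run assay on its 60 human cancer cell lines, cytotoxicity determined via sulforhodamine B after 48 h of exposure.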

786-0 (Renal Cancer) = assay: NCI one dose, 786-0; assay type: cell-based, human; details: 786-0, 1.00E-5 Molar one dose
Method in brief: (§2)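 Selected compounds went through the NCI sixty-line screen; a 48 h treatment preceded sulforhodamine B quantification.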

MCF7 (Breast Cancer) = assay: NCI one dose, MCF7; assay type: cell-based, human; details: MCF7, 1.00E-5 Molar one dose
Method in brief: as §2

[1] = system: NCI-H522 non-small cell lung cancer cells; assay: NCI cell proliferation, NCI-H522; assay type: cell-based, human; details: for inhibition at 10 µM: Homo sapiens, NCI-H522, read-out: % Cancer cell growth Inhibition (NCI-H522); for Growth Percent: NCI-H522, 1.00E-5 Molar one dose
Method in brief: as §1

[2] = system: MDA-MB-231/ATCC (Breast Cancer); assay: NCI one dose, MDA-MB-231/ATCC; assay type: cell-based, human; details: 1.00E-5 Molar one dose
Method in brief: as §2

SW-620 (Colon Cancer) = assay: NCI one dose, SW-620; assay type: cell-based, human; details: SW-620, 1.00E-5 Molar one dose
Method in brief: as §2

MOLT-4 (Leukemia) = assay: NCI one dose, MOLT-4; assay type: cell-based, human; details: MOLT-4, 1.00E-5 Molar one dose
Method in brief: as §2

SR (Leukemia) = assay: NCI one dose, SR; assay type: cell-based, human; details: 1.00E-5 Molar one dose
Experimental: (§3) 3.4. Cell Proliferation Assay
(§4) Selected compounds were tested on a panel of 60 human cancer cell lines at the National Cancer Institute (NCI), Germantown, MD, USA. The cytotoxicity studies were conducted using a 48 h exposure protocol using the sulfo-rhodamine B assay.

SK-MEL-5 (Melanoma) = assay: NCI one dose, SK-MEL-5; assay type: cell-based, human; details: SK-MEL-5, 1.00E-5 Molar one dose
Method in brief: as §2

MDA-MB-435 (Melanoma) = assay: NCI one dose, MDA-MB-435; assay type: cell-based, human; details: MDA-MB-435, 1.00E-5 Molar one dose
Method in brief: as §1

SK-MEL-28 (Melanoma) = assay: NCI one dose, SK-MEL-28; assay type: cell-based, human; details: SK-MEL-28, 1.00E-5 Molar one dose
Method in brief: as §2

TK-10 (Renal Cancer) = assay: NCI one dose, TK-10; assay type: cell-based, human; details: TK-10, 1.00E-5 Molar one dose
Method in brief: as §2

[3] = target: human farnesyltransferase (FTase) (Homo sapiens, UniProt P49354+P49356); assay: FTase inhibitory assay (fluorescence, Dansyl-GCVLS); assay type: biochemical; details: for % FTI: inhibition of human FTase at 100 μM of tested compound, mean of two experiments
Method in brief: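 Partially purified recombinant FTase with Dansyl-GCVLS and farnesyl pyrophosphate in Tris/HCl pH 7.5 (DTT, MgCl2, ZnCl2, octyl-glucoside); fluorescence (ex 340/em 486 nm) read 15 min at 30 °C. IC50 by regression for compounds inhibiting >60% at 100 µM; kinetics varied FPP (Dns-GCVLS 2.5 μM) or peptide (FPP 10 μM).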

PC-3 (Prostate Cancer) = assay: NCI one dose, PC-3; assay type: cell-based, human; details: PC-3, 1.00E-5 Molar one dose
Method in brief: as §2

M14 (Melanoma) = assay: NCI one dose, M14; assay type: cell-based, human; details: M14, 1.00E-5 Molar one dose
Method in brief: as §2

[4] = system: MDA-MB-468 breast cancer cells; assay: NCI one dose, MDA-MB-468; assay type: cell-based, human; details: MDA-MB-468, 1.00E-5 Molar one dose
Method in brief: as §2

SNB-75 (CNS Cancer) = assay: NCI one dose, SNB-75; assay type: cell-based, human; details: SNB-75, 1.00E-5 Molar one dose
Method in brief: as §2

HT29 (Colon Cancer) = assay: NCI one dose, HT29; assay type: cell-based, human; details: HT29, 1.00E-5 Molar one dose
Method in brief: as §2

HCT-15 (Colon Cancer) = assay: NCI one dose, HCT-15; assay type: cell-based, human; details: HCT-15, 1.00E-5 Molar one dose
Method in brief: as §2

[5] = system: HOP-92 (Non-Small Cell Lung Cancer); assay: NCI one dose, HOP-92; assay type: cell-based, human; details: HOP-92, 1.00E-5 Molar one dose
Method in brief: as §2

[6] = system: HOP-62 (Non-Small Cell Lung Cancer); assay: NCI one dose, HOP-62; assay type: cell-based, human; details: HOP-62, 1.00E-5 Molar one dose
Method in brief: as §2

HCT-116 (Colon Cancer) = assay: NCI one dose, HCT-116; assay type: cell-based, human; details: HCT-116, 1.00E-5 Molar one dose
Method in brief: as §2

DU-145 (Prostate Cancer) = assay: NCI one dose, DU-145; assay type: cell-based, human; details: DU-145, 1.00E-5 Molar one dose
Method in brief: as §2

[7] = system: NCI/ADR-RES (Ovarian Cancer); assay: NCI one dose, NCI/ADR-RES; assay type: cell-based, human; details: 1.00E-5 Molar one dose
Method in brief: as §2

[8] = system: NCI-H460 (Non-Small Cell Lung Cancer); assay: NCI one dose, NCI-H460; assay type: cell-based, human; details: NCI-H460, 1.00E-5 Molar one dose
Experimental: as §3, §4

UO-31 renal cancer cells = assay: NCI one dose, UO-31; assay type: cell-based, human; details: UO-31, 1.00E-5 Molar one dose
Method in brief: as §2

[9] = system: A549/ATCC (Non-Small Cell Lung Cancer); assay: NCI one dose, A549/ATCC; assay type: cell-based, human; details: 1.00E-5 Molar one dose
Method in brief: as §2

% FTI [3]	Compound	Growth Percent (OVCAR-8 (Ovarian Cancer))	Growth Percent (786-0 (Renal Cancer))	Growth Percent (MCF7 (Breast Cancer))	inhibition at 10 µM [1]	Growth Percent [1]	Growth Percent [2]	Growth Percent (SW-620 (Colon Cancer))	Growth Percent (MOLT-4 (Leukemia))	Growth Percent (SR (Leukemia))	Growth Percent (SK-MEL-5 (Melanoma))	Growth Percent (MDA-MB-435 (Melanoma))	Growth Percent (SK-MEL-28 (Melanoma))	Growth Percent (TK-10 (Renal Cancer))	Growth Percent (PC-3 (Prostate Cancer))	Growth Percent (M14 (Melanoma))	Growth Percent [4]	Growth Percent (SNB-75 (CNS Cancer))	Growth Percent (HT29 (Colon Cancer))	Growth Percent (HCT-15 (Colon Cancer))	further results
49%	C[C@@]12SC[C@@H](C(=O)NCc3ccccc3)N1C(=O)c1ccccc12 [4bA]	90.77%	101.14%	96.64%	25%	74.90%	99.53%	108.38%	93.49%	78.43%	102.19%	101.35%	105.22%	85.29%	90.34%	101.98%	99.04%	88.09%	80.95%	98.84%	Growth Percent [5]: 83.94%; Growth Percent [6]: 100.09%; Growth Percent (HCT-116 (Colon Cancer)): 97.31%; Growth Percent (DU-145 (Prostate Cancer)): 110.52%; Growth Percent [7]: 98.79%; Growth Percent [8]: 111.12%; Growth Percent (UO-31 renal cancer cells): 99.51%; Growth Percent [9]: 78.86%
74%	COc1cc(CNC(=O)[C@@H]2CS[C@@]3(C)c4ccccc4C(=O)N23)cc(OC)c1OC [4bJ]	92.35%	102.08%	93.75%	31%	68.76%	98.30%	100.88%	81.24%	77.35%	102.14%	104.68%	103.28%	102.44%	89.97%	108.34%	89.65%	97.50%	82.56%	105.84%	IC50 ([3]; human FTase): 4.35 µM; IC50 ([3]; human FTase in vitro): 4.35 µM; Growth Percent [5]: 88.36%; Growth Percent [6]: 90.09%; Growth Percent (HCT-116 (Colon Cancer)): 98.10%; Growth Percent (DU-145 (Prostate Cancer)): 108.72%; Growth Percent [7]: 101.60%; Growth Percent [8]: 105.78%; Growth Percent (UO-31 renal cancer cells): 90.29%; Growth Percent [9]: 83.12%
